Laboratory results taken from patent publication US20250326792A1, “A FORMULATION FOR TREATMENT OF PIGMENTARY DISORDERS” (priority 2022, published 2025).

What was measured:
Tyrosinase [1] = experiment: Tyrosinase activity assay (L-DOPA) in NHEM cells; assay type: cell-based, Human; conditions: for increase in Tyrosinase activity when compared to control: NHEM cells, positive control
Protocol: (§1) Culture and maintenance of cell lines: B16F10 cells were cultured in RPMI containing 10% fetal bovine serum, 100 units per millilitre (U/mL) penicillin, 0.1 mg/mL streptomycin, and 0.25 microgram per millilitre (μg/mL) amphotericin B at 37 degrees Celsius in a humidified 95% air/5% CO2 incubator. Drug treatment was done 24 hours after seeding. Cells were harvested 48 hours later and melanin content and tyrosinase activity determined in triplicate. NHEM cells were cultured in DMEM containing 10% fetal bovine serum, 100 units per milliliter (U/mL) penicillin, 0.1 mg/mL streptomycin, and 0.25 microgram per millilitre (μg/mL) amphotericin B at 37 degrees Celsius in a humidified 95% air/5% CO2 incubator. Drug treatment was done 24 hours after seeding. Cells were harvested 48 hours later and melanin content and tyrosinase activity determined in triplicate.
(§2) IS103 was dissolved in water for injection or DMSO to prepare stock solution of about 50 mg/ml. The stock solution was used for preparation of subsequent dilutions in solvent to achieve working dilutions for treatment ranging 0.1 μg/ml to 1000 μg/ml.
(§3) Tyrosinase activity was determined using L-DOPA as a substrate. Briefly, B16F10 and NHEM cells were seeded in a 6-well plate (2×10^4 cells/well) and incubated for overnight. The cells were then treated with or without the test compounds for 46 hours and were washed twice with ice cold PBS and extracted by sonication in 100 μl of 0.1M Tris-HCl buffer (pH 7.2) containing 1% Nonidet P-40, 0.01% SDS, 100 μM phenyl methyl sulfonyl fluoride, and 1 μg/ml aprotinin and then centrifuged at 10,000 g for about 10 minutes at 4° C. The supernatants collected were used for enzyme assay and its protein content was estimated by method of Bradford using BSA as standard. Samples of cell extract supernatant were incubated in duplicate for 1 hour at 37° C. in 1 ml of 0.1M sodium phosphate buffer (pH 7.4) containing 0.1% L-DOPA. The absorbance was then monitored at 450 nm and compared with purified mushroom tyrosinase (Sigma). The standard curve was prepared limiting linearity within the range of experimental value.

NHEM cells = experiment: Melanin content assay in NHEM cells; assay type: cell-based, Human; conditions: NHEM CELLS
Protocol: as §1, §2
(§4) Cells were seeded in a 6-well plate (2×10^4 cells/well) and incubated overnight to allow the cells to adhere. After treating with various test samples for 4 or 5 days, cells were washed with phosphate-buffered saline (PBS), trypsinized, counted, and then lysed in 1 N NaOH at 100° C. for about 1 hour. The melanin content in each sample was calculated by comparison of absorbance at 400 nm of unknown samples with a standard curve obtained using synthetic melanin. IS103 enhances melanin synthesis in a dose dependent manner without significant toxicity. B16F10 and NHEM cells were treated with different concentrations of IS103 ranging from 0.1 to 1000 μg/ml and analysed melanin contents in cells. It was observed that IS103 was able to enhance pigmentation of B16F10 and NHEM cells in a dose-dependent manner (Table 18 and FIGS. 4 and 5). […] To assess the toxicity of the IS103 peptide, cell viability was analyzed by MTT assay.

Tyrosinase [2] = experiment: Tyrosinase activity assay (L-DOPA) in B16F10 cells; assay type: cell-based; conditions: for increase in Tyrosinase activity when compared to control: B16F10 cells, positive control
Protocol: as §1, §2, §3

B16F10 cells = experiment: Melanin content assay in B16F10 cells; assay type: cell-based; conditions: B16F10 CELLS; 100 μM
Protocol: as §1, §2
as §4, with “IS103 enhances melanin synthesis in a dose dependent manner without significant toxicity.” left out, “cells.” for “cells. It was observed that IS103 was able to enhance pigmentation of B16F10 and NHEM cells in a dose-dependent manner (Table 18 and FIGS. 4 and 5).”

[3] = TYROSINASE ACTIVITY table, NHEM CELLS, 100 μM
[4] = TYROSINASE ACTIVITY table, B16F10 CELLS, 100 μM

Molecule	increase in Tyrosinase activity when compared to control (Tyrosinase [1]; 100 nM)	% increase in tyrosinase activity compared to control (Tyrosinase [1]; TYROSINASE ACTIVITY table, NHEM CELLS, 100 nM)	% increase in melanin content compared to control (NHEM cells; 100 nM)	increase in Tyrosinase activity when compared to control (Tyrosinase [2]; 100 nM)	% increase in tyrosinase activity compared to control (Tyrosinase [2]; TYROSINASE ACTIVITY table, B16F10 CELLS, 100 nM)	increase in Tyrosinase activity when compared to control (Tyrosinase [1]; 100 μM)	% increase in tyrosinase activity compared to control (Tyrosinase [1]; [3])	Tyrosinase activity (Tyrosinase [1]; [3])	% increase in melanin content compared to control (NHEM cells; 100 μM)	Fold change in melanin content (NHEM cells; 100 μM)	% increase in melanin content compared to control (B16F10 cells)	Fold change in melanin content (B16F10 cells)	increase in Tyrosinase activity when compared to control (Tyrosinase [2]; 100 μM)	% increase in tyrosinase activity compared to control (Tyrosinase [2]; [4])	Change in tyrosinase activity (Tyrosinase [2]; [4])
α-Melanocyte Stimulating Hormone [α-MSH, reference compound]	56.33%	56.33%	190%	57.33%	57.33%										
CC(C)Cn1c(=O)n(C)c(=O)c2[nH]cnc21 [IBMX, 3-isobutyl-1-methylxanthine, reference compound]						56%	56%	70.3 ± 4.20	160%	2.6 ± 0.20	180%	2.8 ± 0.20	59%	59%	74.0 ± 5.10
